Measured values taken from patent US20130174289A1, “Na+/Mg2+ Exchanger” (FBN - Leibnitz-Institut fur Nutztierbiologie, priority 2010, published 2013).

How the values were obtained:
[1] = molecular target: SLC41A1-related Na+/Mg2+ exchanger (Homo sapiens, UniProt Q8IVJ1); test: Modulators of SLC41A1-related Na+/Mg2+ exchanger activity (Table 3); type: cell-based; conditions: at the dosage given, where given;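 further: listed substances are classed by whether they raise or lower SLC41A1-related Na+/Mg2+ exchanger activity, acting directly on the protein or through cellular signalling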
Chain of SLC41A1-related Na+/Mg2+ exchanger (Q8IVJ1 whole entry): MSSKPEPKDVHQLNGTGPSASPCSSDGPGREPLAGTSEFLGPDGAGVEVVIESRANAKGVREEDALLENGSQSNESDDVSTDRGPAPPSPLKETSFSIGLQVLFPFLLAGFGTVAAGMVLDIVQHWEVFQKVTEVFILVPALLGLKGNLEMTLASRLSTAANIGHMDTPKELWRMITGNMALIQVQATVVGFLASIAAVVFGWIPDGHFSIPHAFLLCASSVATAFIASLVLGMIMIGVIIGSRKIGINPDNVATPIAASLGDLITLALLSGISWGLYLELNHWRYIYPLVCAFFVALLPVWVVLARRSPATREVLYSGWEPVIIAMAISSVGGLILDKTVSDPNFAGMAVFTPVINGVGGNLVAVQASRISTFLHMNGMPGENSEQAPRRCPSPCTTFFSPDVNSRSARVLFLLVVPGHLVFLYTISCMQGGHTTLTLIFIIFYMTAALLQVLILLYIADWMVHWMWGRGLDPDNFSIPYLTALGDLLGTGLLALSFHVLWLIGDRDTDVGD

hSLC41A1 = hSLC41A1 (Homo sapiens, UniProt Q8IVJ1); test: Mg2+ efflux ([Mg2+]i decrease over 20 min) by mag-fura 2 FF-spectrofluorometry in +tet HEK293-(SLC41A1) cells; conditions: for Mg2+ efflux: Mg2+-free medium, [Na+]e 145 mM; for Effect on SLC41A1-mediated Mg2+ efflux (in words): summary statement
Chain of hSLC41A1 (Q8IVJ1 whole entry): as above
Procedure: Loading of cells with 7.5 μmol.l^−1 mag-fura 2 AM (Molecular Probes, Eugene, Oreg. USA) was performed for 30 minutes at 37° C. in the presence of loading facilitator Pluronic F-127 (Molecular probes). After being washed in CMF-HBS+, cells were incubated for a further 30 minutes at 37° C. to allow for complete de-esterification of the fluorescence probe, washed twice in CMF-HBS+ to remove extracellular mag-fura 2 and stored in CMF-HBS supplemented with 10 mmol.l^−1 HEPES, 5 mmol.l^−1 glucose and 0.4 mmol.l^−1 Mg^2+ until being Mg^2+-loaded before measurements of the Mg^2+ efflux capacity. The latter was determined as the intracellular Mg^2+ concentration ([Mg^2+]i) decrease over a 20-min period. Directly before the efflux experiments, −tet and +tet HEK293-(SLC41A1) were Mg-loaded by a 20-min incubation in CMF-HBS+ containing 0, 2, 5 or 10 mmol.l^−1 Mg. […] After loading, the remaining extracellular Mg^2+ was removed by washing the cells twice in CMF-HBS+ and, after re-suspending the cells in CMF-HBS+, measurements were started. To determine the influence of varying extracellular [Na^+], measuring solutions were prepared by diluting the CMF-HBS+ containing 145 mM Na^+ with appropriate volumes of a completely Na^+- and Mg^2+-free PBS. To investigate the effect of HCO3^− on Mg^2+ efflux, completely Ca^2+- and Mg^2+-free medium 199 completed with 10 mmol.l^−1 HEPES and 1.36 mmol.l^−1 L-glutamine (CMF-M199+) with Hank's (0.35 g/l NaHCO3) or Earl's (2.2 g/l NaHCO3) salts were used during Mg-loading and measurements. To ensure a stable pH value, the high-HCO3^− media were pre-equilibrated with 95% air-5% CO2.
Measurements were made at 37° C. in 3 ml cuvettes containing 2 ml cell suspension (CMF-HBS+ or CMF-M199+ with a cytocrit of 10%) under stirring. [Mg^2+]i was determined by measuring the fluorescence of the probe-loaded cells in a spectrofluorometer (LS50-B, PerkinElmer Life Science, Wellesley, Mass. USA) by using the fast filter accessory, which allowed fluorescence to be measured at 20-ms intervals with excitation at 340 and 380 nm, and emission at 515 nm. [Mg^2+]i values were calculated from the 340/380-nm ratio according to the formula of Grynkiewicz et al. (1981) by using the software FL WinLab version 4.0 (PerkinElmer Life Science). A dissociation constant of 1.5 mmol.l^−1 for the mag-fura 2/Mg^2+ complex was used for calculations; minimum (Rmin) and maximum (Rmax) ratios were determined at the end of each experiment by using digitonin. Rmax was found by the addition of 25 mmol.l^−1 MgCl2 in the absence of Ca^2+, whereas Rmin was obtained by addition of 50 mmol.l^−1 EDTA, pH 7.2, to remove all Mg^2+ from the solution. For data evaluation, 10-second data sets each were averaged at the beginning of the measurement and then always after 50 seconds. The final [Mg^2+]i was determined as the mean [Mg^2+]i of the last 10 seconds of the measurement. Thus, for the calculation of any given [Mg^2+]i, 500 data points were used. If not otherwise stated, data are presented as means±standard error (SE).

HEK293-(SLC41A1) cells = test: Proliferation (cell index) of HEK293-(SLC41A1) cells; conditions: imipramine 250 μM, dB-cAMP 100 μM, added 24 hours after seeding; compared to controls

Molecule | Effect on Na+/Mg2+ exchanger [1] | also measured
Nc1ncnc2c1nc(Cl)n2[C@@H]1O[C@@H]2COP(=O)(O)O[C@H]2[C@H]1O [8-Cl-cAMP] | activation | –
Nc1nc2c(nc(Br)n2[C@@H]2O[C@@H]3COP(=O)(O)O[C@H]3[C@H]2O)c(=O)[nH]1 [8-bromo-cyclic GMP] | activation | –
C[C@]12CCC(=O)C=C1CC[C@@H]1[C@@H]2[C@@H](O)C[C@]2(C=O)[C@@H](C(=O)CO)CC[C@@H]12 [Aldosterone] | activation | –
N=C(N)NC(=O)c1nc(Cl)c(N)nc1N [Amiloride, 3,5-diamino-6-chloro-N-(diaminomethylidene)pyrazine-2-carbox-amide] | Inhibition | –
CCCCC/C=C\C/C=C\C/C=C\C/C=C\CCCC(=O)O [Arachidonic acid, (5Z,8Z,11Z,14Z)-icosa-5,8,11,14-tetraenoic acid] | activation | –
COc1c(O)c2c(=O)cc(OC)c3c4c(OC)cc(=O)c5c(O)c(OC)c(CC(C)OC(=O)c6ccccc6)c(c(c1CC(C)OC(=O)Oc1ccc(O)cc1)c23)c54 (stereo not shown) [Calphostin C, 1-[3,10-dihydroxy-12-[2-(4-hydroxyphenoxy)-carbonyloxypropyl]-2,6,7,11-tetramethoxy-4,9-dioxoperylen-1-yl]propan-2-yl benzoate] | inhibition | –
CCN(CC)CC(=O)Nc1c(C)cccc1C [Lidocaine, 2-(diethylamino)-N-(2,6-dimethylphenyl)-acetamide] | Inhibition | –
NC[C@H](O)c1ccc(O)c(O)c1 [Norepinephrine] | activation | –
O=c1onc2cnc3ccccc3n12 [ODQ, 1H-[1,2,4]oxadiazolo[4,3-α]quinoxaline-1] | inhibition | –
C[C@@H]1O[C@@H](O[C@H]2C[C@@H](O)[C@]3(CO)[C@H]4[C@H](O)C[C@]5(C)[C@@H](C6=CC(=O)OC6)CC[C@]5(O)[C@@H]4CC[C@]3(O)C2)[C@H](O)[C@H](O)[C@H]1O [Ouabain] | inhibition | –
CCCC(=O)O[C@@H]1[C@@H](C)[C@@]2(O)[C@@H](C=C(CO)C[C@]3(O)C(=O)C(C)=C[C@@H]23)[C@@H]2C(C)(C)[C@]12OC(=O)CCC [Phorbol 12,13-dibutyrate] | activation | –
Nc1ncnc2c1ncn2[C@@H]1O[C@@H]2COP(O)(=S)O[C@H]2[C@H]1O (stereo partly shown) [Rp-cAMP] | inhibition | –
C[C@@H]1C[C@@]2(NC(=O)CS2)[C@]2(O)O[C@@H]3C[C@@]4(CO)[C@@H](CC[C@@H]5[C@@H]4CC[C@]4(C)[C@@H](C6=CC(=O)OC6)CC[C@]54O)C[C@H]3O[C@@H]2O1 [UNBS-1450] | inhibition | –
C[C@]12CC[C@H](O)C[C@@]1(O)CC[C@@H]1[C@@H]2CC[C@]2(C)[C@@H](c3ccc(=O)oc3)C[C@H]3O[C@]132 [marinobufagenin] | inhibition | –
CO[C@H]1C[C@H](O[C@H]2CC[C@@]3(C)[C@H](CC[C@@H]4[C@@H]3CC[C@]3(C)[C@@H](C5=CC(=O)OC5)[C@@H](OC(C)=O)C[C@]43O)C2)O[C@@H](C)[C@@H]1O [oleandrin] | inhibition | –
Angiotensin II: hormone; vasoactive agent, vasoconstriction (via AT 1 receptor) (DRVYIHPF; Angiotensin-2; UniProt P01019 25-32, looked up) | activation | stimulation of SLC41A1-related Mg2+ efflux (hSLC41A1): 19.5%; Effect on SLC41A1-mediated Mg2+ efflux (in words) (hSLC41A1): stimulated

Second part, led by results:

Effect on Na+/Mg2+ exchanger [1] | Molecule | also measured
Inhibition | N/C(=N\C(=O)c1nc(Cl)c(N)nc1N)NCc1ccccc1 [Benzamil, 3,5-diamino-N-[(1E)-amino(benzylamino)methylidene]-6-chloropyrazine-2-carboxamide] | –
Inhibition | O=S(=O)([O-])c1cc(N=C=S)ccc1CCc1ccc(N=C=S)cc1S(=O)(=O)[O-].[Na+].[Na+] [DIDS, 4′,4′-diisothiocyanatodihydrostilbene-′,2′-disulfonic acid, disodium salt] | –
activation | C=C[C@@]1(C)CC(=O)[C@]2(O)[C@@]3(C)[C@@H](O)CCC(C)(C)[C@@H]3[C@H](O)[C@H](OC(C)=O)[C@@]2(C)O1 [Forskolin, [(3R,4aR,5S,6S,6aS,10S,10aR,10bS)-3-ethenyl-6,10,10b-trihydroxy-3,4a,7,7,10a-pentamethyl-1-oxo-5,6,6a,8,9,10-hexahydro-2H-benzo[f]chromen-5-yl] acetate] | –
inhibition | O=c1c(-c2ccc(O)cc2)coc2cc(O)cc(O)c12 [Genistein, 5,7-dihydroxy-3-(4-hydroxyphenyl)chromen-4-one] | –
Inhibition | CN(C)CCCN1c2ccccc2CCc2ccccc21 [Imipramine, 10,11-Dihydro-N,N-dimethyl-5H-dibenz-[b,f]azepin-5-propanamin] | Mg2+ efflux (hSLC41A1; 250 μM, Mg2+-loaded (20 min, 10 mM) +tet HEK293-(SLC41A1) cells, without inhibitor 341±35): 129±32 μM/20 min; Effect on SLC41A1-mediated Mg2+ efflux (in words) (hSLC41A1): strongly decrease; Effect on proliferation of SLC41A1-overexpressing cells (in words) (HEK293-(SLC41A1) cells): reduced the proliferation
activation | COc1ccc2c(c1)c(CC(=O)O)c(C)n2C(=O)c1ccc(Cl)cc1 [Indomethacin, 2-[1-(4-chlorobenzoyl)-5-methoxy-2-methylindol-3-yl]acetic acid] | –
Inhibition | CS(=O)(=O)O.N=C(N)SCCc1ccc(OCc2ccc([N+](=O)[O-])cc2)cc1 [KB-R7943, 2-(2-(4-(4-nitrobenzyloxy)-phenyl)ethyl)isothiourea methanesulfonate] | –
inhibition | CNC(=N)NCCC[C@H](N)C(=O)O [L-NMMA, NG-monomethyl-L-arginine] | –
activation | COCC(/C(C)=C/C(=N\O)C(N)=O)[N+](=O)[O-] (stereo not shown) [NOR1, (E)-4-methyl-2-[(E)-hydoxyimino]-5-nitro-6-methoxy-3-hexenamide] | –
Inhibition | COC(=O)C1=C(C)NC(C)=C(C(=O)OC)C1c1ccccc1[N+](=O)[O-] [Nifedipine, 3,5-dimethyl 2,6-dimethyl-4-(2-nitrophenyl)-1,4-di-hydropyridine-3,5-di-carboxylate] | –
activation | CCCCC[C@H](O)/C=C/[C@H]1[C@H](O)CC(=O)[C@@H]1C/C=C\CCCC(=O)O [PGE2, (Z)-7-[(1R,2R,3R)-3-hydroxy-2-[(E,3S)-3-hydroxyoct-1-enyl]-5-oxocyclopentyl]hept-5-enoic acid] | –
Inhibition | C=CC1CN2CCC1CC2C(O)c1ccnc2ccc(OC)cc12 (stereo not shown) [Quinidin, (2-ethenyl-4-azabicyclo [2.2.2]oct-5-yl)-(6-methoxyquinolin-4-yl)-methanol] | Mg2+ efflux (hSLC41A1; 100 μM quinidin, Mg2+-loaded (10 mM) +tet HEK293-(SLC41A1) cells, without inhibitor 327±71): 176±0.5 μM/20 min; Effect on SLC41A1-mediated Mg2+ efflux (in words) (hSLC41A1): strongly decrease
Inhibition | CCOc1ccc(Oc2ccc(OCc3cc(F)ccc3F)cc2)c(N)c1 [SEA0400, 2-[4-[(2,5-difluoro-phenyl)methoxy]phenoxy]-5-ethoxyaniline] | –
inhibition | NCCS(=O)(=O)O [Taurine, 2-aminoethanesulfonic acid] | –
activation | CCCC(=O)Nc1ncnc2c1ncn2[C@@H]1O[C@@H]2COP(=O)(O)O[C@H]2[C@H]1OC(=O)CCC [dibutyryl-cAMP] | increase of SLC41A1-related Mg2+ efflux (hSLC41A1; dB-cAMP 100 μM, loading in 0 mM-Mg2+ solution, +tet cells): 36%; increase of SLC41A1-related Mg2+ efflux (hSLC41A1; dB-cAMP 100 μM, loading in 2 mM-Mg2+ solution, +tet cells): 13%; decrease of SLC41A1-related Mg2+ efflux (hSLC41A1; dB-cAMP 100 μM, loading in 10 mM-Mg2+ solution, +tet cells): 17%; Effect on SLC41A1-mediated Mg2+ efflux (in words) (hSLC41A1): stimulated; Effect on proliferation of SLC41A1-overexpressing cells (in words) (HEK293-(SLC41A1) cells): stimulation of their proliferation
activation | CC(C)NCC(O)c1ccc(O)c(O)c1 (stereo not shown) [isoproterenol] | –
inhibition | C[C@]12CC[C@H](O)C[C@H]1CC[C@@H]1[C@@H]2CC[C@]2(C)[C@@](O)(c3ccoc3)CC[C@]12O [rostafuroxin] | –
activation | Glucagon: hormone; modulator listed in Table 3 | –
inhibition | Insulin: hormone (via insulin receptor) | Effect on SLC41A1-mediated Mg2+ efflux (in words) (hSLC41A1): inhibitory effect
inhibition | epidermal growth factor (EGF): mitogen | –
